Data: PubChem BioAssay (NCI)
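In this assay, cells in 96-well plates receive the compound at five concentrations for 48 hours. Endpoints are linearly interpolated between the surrounding concentrations. Here, GI50 denotes the concentration required for 50% inhibition of growth. The concentration for full growth arrest is given as TGI.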

How the values were obtained:
Test in all cases: NCI anticancer screen, dose series, 48 h
CAKI-1 renal = system: CAKI-1 renal
COLO 205 colon = system: COLO 205 colon
EKVX NSCLC = system: EKVX NSCLC
HCC-2998 colon = system: HCC-2998 colon
IGROV1 ovarian = system: IGROV1 ovarian
K-562 leukemia = system: K-562 leukemia
NCI-H460 lung = system: NCI-H460 lung
SF-295 CNS = system: SF-295 CNS
SF-539 CNS = system: SF-539 CNS
SNB-19 CNS = system: SNB-19 CNS

Compound | TGI (CAKI-1 renal) [µM] | TGI (COLO 205 colon) [µM] | TGI (EKVX NSCLC) [µM] | TGI (HCC-2998 colon) [µM] | TGI (IGROV1 ovarian) [µM] | TGI (K-562 leukemia) [µM] | TGI (NCI-H460 lung) [µM] | TGI (SF-295 CNS) [µM] | TGI (SF-539 CNS) [µM] | TGI (SNB-19 CNS) [µM] | GI50 (COLO 205 colon) [µM] | GI50 (EKVX NSCLC) [µM] | GI50 (IGROV1 ovarian) [µM] | GI50 (K-562 leukemia) [µM] | GI50 (NCI-H460 lung) [µM] | GI50 (SF-295 CNS) [µM] | GI50 (SF-539 CNS) [µM] | GI50 (SNB-19 CNS) [µM] | GI50 (CAKI-1 renal) [µM] | GI50 (HCC-2998 colon) [µM]
COc1ccc2c3c([nH]c2c1)[C@H](C=C(C)C)N1C(=O)[C@@H]2CCCN2C(=O)[C@@H]1C3 | > 100 | > 100 | > 100 | > 100 | > 100 | > 100 | > 100 | > 100 | 83 | > 100 |  |  |  |  |  |  |  |  |  | 
Nc1ccc(Cc2ccc(N)c(C(=O)O)c2)cc1C(=O)O | > 100 | > 100 | > 100 | > 100 | > 100 | > 100 | > 100 | > 100 | > 100 | > 100 |  |  |  |  |  |  |  |  |  | 
COc1cc2cc[n+](C)c(Cc3ccc(Oc4cc(Cc5c6cc(OC)c(OC)cc6cc[n+]5C)ccc4OC)cc3)c2cc1OC | > 100 | > 100 | > 100 | > 100 | > 100 | > 100 | > 100 | > 100 | > 100 | > 100 |  |  |  |  |  |  |  |  |  | 
CCCCSCCC(N)P(=O)(O)O (stereo not given) | > 100 | > 100 |  | > 100 | > 100 | > 100 | > 100 | > 100 |  | > 100 |  |  |  |  |  |  |  |  |  | 
O=S(C(c1ccccc1)=P(c1ccccc1)(c1ccccc1)c1ccccc1)c1ccc(Cl)cc1 (stereo not given) | > 100 |  | > 100 | > 100 | > 100 | > 100 | > 100 | > 100 | > 100 |  |  |  |  |  |  |  |  |  |  | 
Cc1ccc(S(=O)(=O)Nc2cc(=O)[nH]c3c2CCC3)cc1 | > 100 | > 100 | > 100 | > 100 | > 100 | > 100 | > 100 | > 100 | > 100 | > 100 |  |  |  |  |  |  |  |  |  | 
C[C@]12O[C@@]3(C)O[C@@]3(C)[C@]3(C)O[C@]3(C)[C@@]1(C)O2 | > 100 | > 100 | > 100 |  |  | > 100 |  | > 100 |  | > 100 |  |  |  |  |  |  |  |  |  | 
O=C(NN1CCCCC1)c1cc2cc(CCl)ccc2oc1=O | 33.3 | 36 | 27.4 | 27.1 | 42.7 | 48.1 | 31.1 | 42 | > 100 | 65.2 |  |  |  |  |  |  |  |  |  | 
CCCC(=O)Nc1cc(/C=C/C(=O)N2CC(CCl)c3c2cc(OC(C)=O)c2[nH]cc(C)c32)n(C)c1 (stereo not given) |  | 4.32e-05 | 0.00665 |  | > 0.25 | > 0.197 | 0.000419 | 0.000311 | 0.000107 | 0.0436 |  |  |  |  |  |  |  |  |  | 
C=CCc1cccc(/C(O)=C/C(=O)/C=C/c2ccccc2Cl)c1O | > 100 | > 58.7 | > 100 | > 100 | 29.6 | > 25.2 | > 100 | > 87.7 | 72 | > 84 |  |  |  |  |  |  |  |  |  | 
CN(CCCN1CCCC1)CCCN(C)C(=O)Cc1ccc(Cl)c(Cl)c1 | 49.1 | 41.2 | 62.5 | 20.6 | 67.8 | 18.3 | 33.8 | 36.2 | > 53.2 | > 72.6 |  |  |  |  |  |  |  |  |  | 
CCOC(=O)c1cccc(N=Nc2ncc(/C=C/C(=O)OC)[nH]2)c1 | > 100 | 49 | > 100 | 43.8 | 83.8 | > 100 | 34.5 | 63.2 | > 100 | > 100 |  |  |  |  |  |  |  |  |  | 
COc1ccc(-n2nnc3c(C#N)c(C)c(-c4ccccc4)n3c2=O)cc1 | > 100 | 10.6 | > 26.1 | > 33.2 | > 100 |  | > 39.3 | > 27.5 | > 20 | > 21.6 |  |  |  |  |  |  |  |  |  | 
CC(NC(=O)c1ccc(OP(=O)(OCc2ccc([N+](=O)[O-])o2)N(C)CCCCCl)cc1)c1ccc(OCC2CCCCC2)c(C(N)=O)c1 (stereo not given) | > 58 | 6.24 | > 100 | > 21.7 | 8.34 | 18 | 14.5 | > 32.4 | 10.1 | > 100 |  |  |  |  |  |  |  |  |  | 
COc1cc(/C=C2\CC3C4CC[C@H]5C[C@@H](O)CC[C@]5(C)C4CC[C@]3(C)\C2=N\O)cc(OC)c1OC (stereo not given in full) | 29.3 | 29.4 | > 100 | 38.6 | > 100 | > 100 | 82.9 | 15.4 | 34.1 | > 100 |  |  |  |  |  |  |  |  |  | 
CS(=O)(=O)Nc1ccc(NCc2cnc3ccc4[nH]cccc4c23)cc1 | 65 | 36.2 | > 100 |  | > 100 | 53.7 | > 100 | > 100 | 68.3 | > 100 |  |  |  |  |  |  |  |  |  | 
NC(N)=N/N=C/c1c(-c2cccs2)nc2n1CCS2 |  | 40.4 | 85.7 |  | > 100 | 71.8 | 40.6 | 30.6 | 33.3 | 57.8 | 18.1 | 27.7 | 34.9 | 27.9 | 18.7 | 14 | 19.2 | 22 |  | 
Cc1c2ccccc2cc2cccc[n+]12 |  | > 100 | 92.5 | > 100 | > 100 | > 100 | > 100 | > 100 | > 100 | > 100 |  |  |  |  |  |  |  |  |  | 

Compound | TGI (CAKI-1 renal) [µM] | TGI (COLO 205 colon) [µM] | TGI (EKVX NSCLC) [µM] | TGI (HCC-2998 colon) [µM] | TGI (IGROV1 ovarian) [µM] | TGI (K-562 leukemia) [µM] | TGI (NCI-H460 lung) [µM] | TGI (SF-295 CNS) [µM] | TGI (SF-539 CNS) [µM] | TGI (SNB-19 CNS) [µM] | GI50 (COLO 205 colon) [µM] | GI50 (EKVX NSCLC) [µM] | GI50 (IGROV1 ovarian) [µM] | GI50 (K-562 leukemia) [µM] | GI50 (NCI-H460 lung) [µM] | GI50 (SF-295 CNS) [µM] | GI50 (SF-539 CNS) [µM] | GI50 (SNB-19 CNS) [µM] | GI50 (CAKI-1 renal) [µM] | GI50 (HCC-2998 colon) [µM]
OC1CCSc2ccccc21 (stereo not given) | > 100 | > 100 | > 100 | > 100 | > 100 | > 100 | > 100 |  | > 100 | > 100 |  |  |  |  |  |  |  |  |  | 
CC(C)C(=O)CC(c1ccc(Br)cc1)N1N=C(C(C)C)CC1c1ccc(Br)cc1 (stereo not given) | > 100 | > 100 | > 100 | > 100 |  | > 100 | > 100 |  | > 100 | > 100 |  |  |  |  |  |  |  |  |  | 
Oc1ccc(Cl)cc1C1=Nn2c(COc3ccc4c(c3)CCCC4)nnc2SC1 | 49.6 | 31.3 | 34.7 |  | 26.3 | 49.4 | 30.9 | 29.7 | 33.4 | 50.5 |  |  |  |  |  |  |  |  |  | 
CN(C)c1ccc(/C=C2\C[C@H]3[C@@H]4CC=C5C[C@@H](O)CC[C@]5(C)[C@H]4CC[C@]3(C)[C@H]2O)cc1 |  | 23 | 23.8 |  | 35.3 | > 100 | 28.9 | 44.8 | 22.1 | 37.1 |  |  |  |  |  |  |  |  |  | 
COc1cc(S(=O)(=O)Nc2ccc(-c3csc(/N=C\c4cccc(Oc5ccccc5)c4)n3)cc2)ccc1Cl | > 100 | > 100 | 81.4 |  | 64.2 | 77 |  | > 100 | > 100 | > 100 |  |  |  |  |  |  |  |  |  | 
CS(=O)(=O)Nc1cccc(-c2ccc3ncnc(Nc4cncc(Cl)c4)c3c2)c1 | > 100 |  |  | 5.27 | 4.06 | > 100 | > 100 |  | 5.82 | > 100 |  |  | 0.533 | 2.59 | 3.18 |  | 2.06 | 3.84 | 2.57 | 2.4
Nc1csc(-c2scc3c2OCCO3)c1N | > 100 | 91.4 | 72.3 | 49.8 | 54.8 | 87.4 | 73.7 | 38.3 | 47.4 | > 100 |  |  |  |  |  |  |  |  |  | 
CC(CCCCNC(=O)OC(C)(C)C)NC(=O)NC(C)CCCCNC(=O)OC(C)(C)C (stereo not given) | > 100 | > 100 | > 100 |  | > 100 | > 100 | > 100 | > 100 |  | > 100 |  |  |  |  |  |  |  |  |  | 
Cc1cc(=O)[nH]c(S(=O)(=O)NC(=O)Nc2cccc(Cl)c2)n1 | > 22.3 | > 100 | > 100 | > 100 | > 100 | > 100 | > 100 | > 100 | > 100 | > 100 |  |  |  |  |  |  |  |  |  | 
CN(CCN1C(=O)c2cccc3cccc(c23)C1=O)CCN1C(=O)c2cccc3cccc(c23)C1=O | > 100 | 16.5 | > 100 |  | > 100 | > 100 | > 100 | 29 | > 100 | 16.8 |  |  |  |  |  |  |  |  |  | 
CC12OC(C(=O)C13CCC3)C1C(=O)c3c(O)ccc(O)c3C(=O)C12 (stereo not given) | 2.62 | > 100 | 22.7 |  | 11.4 | 10.3 | 29.3 | 10.3 | 15.8 | > 50.5 | 3.14 | 9.34 | 3.3 | 1.27 | 7.46 |  | 2.99 | 14.7 | 0.817 | 
CC(C)(C)COS(=O)OCC(C)(C)C | > 100 | > 100 | > 100 | > 100 | > 100 | > 100 | > 100 | > 100 | > 100 | > 100 |  |  |  |  |  |  |  |  |  | 
O=C1/C(=C/c2ccc([N+](=O)[O-])cc2)Sc2scc(-c3cccc([N+](=O)[O-])c3)[n+]21 | 7.03 | 3.69 | 25 | 19.1 | 10.7 | 8.16 | 26.1 | 29.3 | 6.44 | 31.5 |  |  |  |  |  |  |  |  |  | 
CN(CCc1ccccn1)c1ccc2c(c1)Cc1ccccc1-2 | > 100 | 41.4 | 62 | > 100 | 88.1 | > 100 | > 100 | 41.1 |  | 58 |  |  |  |  |  |  |  |  |  | 
Fc1c(F)c(F)c(CSc2nc3ccccc3[nH]2)c(F)c1F | > 100 | > 100 | > 100 | > 100 | > 100 | > 100 | > 100 | > 100 | > 100 | > 100 |  |  |  |  |  |  |  |  |  | 
C#C[C@]1(O)[C@@H](CO)O[C@@H](n2ccc(=O)[nH]c2=O)[C@@H]1O |  | 0.173 | > 100 |  | 2.59 | > 100 | > 100 | > 45.2 | 1.39 | > 62.1 |  |  |  |  |  |  |  |  |  | 
C/C=C/C(O)P(=O)(OC)OC (stereo not given) | 1.85 | 0.366 | 1.51 | 0.774 | 1.01 | 2.63 | 0.93 | 1.39 | 0.74 | 1.53 |  |  |  |  |  |  |  |  |  | 
